Measured values reported in patent US20130244950A1, “COMBINATION THERAPY FOR CHEMORESISTANT CANCERS” (CELGENE CORPORATION, priority 2011, published 2013).
Like-named read-outs stand apart in the source and are kept apart here.

Tests used:
[1] = cited from earlier work
[2] = system: ccRCC cell lines A498 and KIJ265T and TNBC cell lines MDA231 and BT20; experiment: Drug treatments and proliferation assay (cell counting, Coulter Particle Counter); format: cell-based, Human
Experimental: Human renal cell carcinoma cell lines A498 (ATCC, Manassas, Va.) and KIJ265T (derived from primary tumor site stage 4 human renal cell carcinoma patient tissue established in the Copland laboratory), as well as triple negative breast cancer cell lines BT-20 (ATCC) and MDA-231 (ATCC) were maintained in phenol red free DMEM medium (Cellgro, Herndon, Va.) supplemented with 10% FBS (Hyclone, Logan, Utah) and penicillin-streptomycin (Invitrogen, Carlsbad, Calif.) at 37° C. in humidified conditions with 5% CO2.
DMSO was used for vehicle control. […] Cells were trypsinized 24 hours later and counted.

[3] = system: KIJ265T ccRCC cell line; experiment: Cell death analysis via flow cytometry (propidium iodide); format: cell-based, Human; settings: 5 nM romidepsin and/or 1 μM decitabine, 72 hour treatment
Experimental: Cells were treated with the optimal combinatorial therapy and appropriate control groups were prepared. After 72 hour treatment both adhered and floating cells were collected, centrifuged at 4° C., and washed using DPBS. Cells were centrifuged and re-suspended in 1× cold binding buffer (BD Pharmingen, San Jose, Calif.) at a concentration of 1×10^6 cells per ml. Cells were stained for 10 minutes with propidium iodide (BD Pharmingen), and FACS analysis was performed using Accuri C6 flow cytometer (Accuri, Ann Arbor, Mich.). Unstained cells were used as controls for setting the cell population parameters.

[4] = system: BT20 cell line; experiment: as above; format: cell-based, Human; settings: 5 nM romidepsin and/or 1 μM decitabine, 72 hour treatment
[5] = system: MDA231 and KIJ265T cells; experiment: Proliferation of cells treated with recombinant human sFRP1; format: cell-based; settings: escalating doses of recombinant sFRP1 in the media, 72 hours
Experimental: For the treatment of cells with recombinant human sFRP1, MDA231 and KIJ265T cells were seeded in a 96-well culture plate at 5000 cells per well in 100 μl DMEM supplemented with PSA and 10% FBS. After overnight incubation, cells were washed in PBS and 100 μl of serum free DMEM containing the final concentration of sFRP1 was added. The cells were incubated for 6 hours Serum was re-introduced to these wells to a final concentration of 2% FBS. Plates were incubated for 72 hours before cells were trypsinized and counted.

[6] = system: PARP cleavage in KIJ265T and MDA-231 parent cell lines; experiment: PARP cleavage after recombinant human sFRP1; format: cell-based; settings: single dose of 1.4 nM sFRP1

For `Nc1ncn([C@@H]2O[C@H](CO)[C@@H](O)[C@H]2O)c(=O)n1` [azacitidine, 4-amino-1-β-D-ribofuranozyl-s-triazin-2(1H)-one], the solubility ([1]; acetone, ethanol and methyl ketone) is given as “insoluble”, the solubility ([1]; dimethylsulfoxide (DMSO)) is given as “soluble” and the solubility ([1]; ethanol/water (50/50), propylene glycol and polyethylene glycol) is given as “slightly soluble”. The solubility ([1]; water, water-saturated octanol, 5% dextrose in water, N-methyl-2-pyrrolidone, normal saline and 5% Tween 80 in water) was “sparingly soluble”.

For `Nc1ncn([C@H]2C[C@H](O)[C@@H](CO)O2)c(=O)n1` [decitabine, 4-amino-1-(2-deoxy-β-D-erythro-pentofuranosyl)-1,3,5-triazin-2(1H)one], the “effect on cell proliferation” value ([2]; decitabine alone, all tested doses (0.01 μM to 10 μM), 72 hours post drug exposure) is given as “minimal effect on cell proliferation”, the “cell death induced above DMSO treated controls” value [3] is given as 6.3% and the solubility ([1]; dimethylsulfoxide (DMSO)) is given as “soluble”. For the same molecule, the solubility ([1]; ethanol/water (50/50), methanol/water (50/50) and methanol) was “slightly soluble” and the solubility ([1]; water) was “sparingly soluble”.

In the case of `C/C=C1\NC(=O)[C@H]2CSSCC/C=C/[C@H](CC(=O)N[C@H](C(C)C)C(=O)N2)OC(=O)[C@H](C(C)C)NC1=O` [romidepsin, (1S,4S,7Z,10S,16E,21R)-7-ethylidene-4,21-bis(1-methylethyl)-2-oxa-12,13-dithia-5,8,20,23-tetrazabicyclo[8.7.6]tricos-16-ene-3,6,9,19,22-pentone], the “cell death in single treatment samples” value ([2]; 5 nM romidepsin, 3 day exposure) is reported as about 50%, the “inhibition of cell proliferation” value ([2]; romidepsin alone, 2.5-100 nM dose range, 72 hours post drug exposure) is reported as “significant inhibition of cell proliferation” and the “cell death induced compared to DMSO controls” value [4] is reported as 5.8%.

B1: recombinant human sFRP1: recombinant human secreted frizzled related protein 1, negative regulator of Wnt signaling (protein, UniProt Q8N474 32-314, looked up)
Secreted frizzled-related …: SEYDYVSFQSDIGPYQSGRFYTKPPQCVDIPADLRLCHNVGYKKMVLPNLLEHETMAEVKQQASSWVPLLNKNCHAGTQVFLCSLFAPVCLDRPIYPCRWLCEAVRDSCEPVMQFFGFYWPEMLKCDKFPEGDVCIAMTPPNATEASKPQGTTVCPPCDNELKSEAIIEHLCASEFALRMKIKEVKKENGDKKIVPKKKKPLKLGPIKKKDLKKLVLYLKNGADCPCHQLDNLSHHFLIMGRKVKSQYLLTAIHKWDKKNKEFKNFMKKMKNHECPTFQSVFK
In the case of B1, the cell proliferation [5] is reported as “dose-dependent decrease” and the “induction of apoptosis (PARP cleavage)” value [6] is reported as “induction of apoptosis as seen by PARP cleavage”.
